From patent US8575158B2, “1-phenyl-substituted heterocyclyl derivatives and their use as prostaglandin D2 receptor modulators” (Actelion Pharmaceuticals Ltd., priority 2010, dated 2013)

Molecular target: T1, hCRTH2 receptor (Homo sapiens, UniProt Q9Y5Y4)
T1 construct: expressed in transfected cells; host or cells: HEK293
T1 sequence (Q9Y5Y4 1-395): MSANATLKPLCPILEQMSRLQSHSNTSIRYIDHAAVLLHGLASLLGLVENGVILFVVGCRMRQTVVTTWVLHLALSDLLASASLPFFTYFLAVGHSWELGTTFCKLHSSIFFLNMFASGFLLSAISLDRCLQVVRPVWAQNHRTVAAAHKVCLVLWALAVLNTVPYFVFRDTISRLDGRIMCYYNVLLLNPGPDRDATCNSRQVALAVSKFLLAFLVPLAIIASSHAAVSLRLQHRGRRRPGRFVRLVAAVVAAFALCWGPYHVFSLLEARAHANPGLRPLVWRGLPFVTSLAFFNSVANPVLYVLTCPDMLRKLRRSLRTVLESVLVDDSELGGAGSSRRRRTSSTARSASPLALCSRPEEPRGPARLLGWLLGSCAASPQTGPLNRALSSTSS
Assay: Radioligand displacement assay (3H-PGD2) on hCRTH2 receptor membranes
Type: binding
Details: antagonistic activity

[1] = 3H-PGD2 radioligand displacement, HEK293-hCRTH2 membranes
[2] = 3H-PGD2 displacement on HEK293-hCRTH2 membrane fragments

Structure (SMILES) | IC50 [1] [µM] | IC50 [2] [µM] | further results
Cc1conc1COC(=O)N1CCc2cc(F)ccc2[C@H]1c1cc(Cl)ccc1OCC(=O)O [Example 331, (S)-1-(2-Carboxymethoxy-5-chloro-phenyl)-6-fluoro-3,4-dihydro-1H-isoquinoline-2-carboxylic acid 4-methyl-isoxazol-3-ylmethyl ester] | 0.00729 |  | 
O=C(O)COc1ccc(F)cc1C1c2ccccc2CCN1C(=O)Cc1csc2ccccc12 (racemic) [Example 58, (±)-{2-[2-(2-Benzo[b]thiophen-3-yl-acetyl)-1,2,3,4-tetrahydro-isoquinolin-1-yl]-4-fluoro-phenoxy}-acetic acid] |  | 0.123 | 
O=C(O)COc1ccc(Cl)cc1C1c2ccccc2CCN1C(=O)CCCc1cccc(Cl)c1Cl (racemic) [Example 109, (±)-(4-Chloro-2-{2-[4-(2,3-dichloro-phenyl)-butyryl]-1,2,3,4-tetrahydro-isoquinolin-1-yl}-phenoxy)-acetic acid] |  | 0.0169 | 
Cc1ccc(OCC(=O)N2CCc3ccccc3C2c2cc(Cl)ccc2OCC(=O)O)cc1 (racemic) [Example 414] | 0.126 |  | 
Cc1cc(C)n(COC(=O)N2CCc3ccccc3C2c2cc(Cl)ccc2OCC(=O)O)n1 (racemic) [Example 269] |  | 0.00495 | 
O=C(O)COc1ccc(Cl)cc1C1c2ccccc2CN1C(=O)C1CC1c1ccccc1 (stereo not drawn) [Example 503, {4-Chloro-2-[2-trans-(2-phenyl-cyclopropanecarbonyl)-2,3-dihydro-1H-isoindol-1-yl]-phenoxy}-acetic acid] | 0.0112 |  | 
O=C(O)COc1ccc(Cl)cc1C1c2ccccc2CN1C(=O)C1CC1c1ccccc1F (stereo not drawn) [Example 525, (4-Chloro-2-{2-trans-[2-(2-fluoro-phenyl)-cyclopropanecarbonyl]-2,3-dihydro-1H-isoindol-1-yl}-phenoxy)-acetic acid] | 0.0135 |  | 
Cc1csc(COC(=O)N2CCc3ccccc3[C@H]2c2cc(Cl)ccc2OCC(=O)O)n1 [Example 276, (S)-1-(2-Carboxymethoxy-5-chloro-phenyl)-3,4-dihydro-1H-isoquinoline-2-carboxylic acid 4-methyl-thiazol-2-ylmethyl ester] |  | 0.00182 | 
O=C(O)COc1ccc(Cl)cc1C1c2ccccc2CCN1C(=O)OCc1ccccc1 (racemic) [Example 21, (±)-1-(2-Carboxymethoxy-5-chloro-phenyl)-3,4-dihydro-1H-isoquinoline-2-carboxylic acid benzyl ester] |  | 0.00687 | 
Cc1cc2ccccc2n1CCC(=O)N1CCc2ccccc2C1c1cc(Cl)ccc1OCC(=O)O (racemic) [Example 446] | 0.175 |  | 
O=C(O)COc1ccc(Cl)cc1C1c2ccccc2CCN1C(=O)NCc1ccccc1 (racemic) [Example 492] | 0.0166 |  | 
O=C(O)COc1ccc(Cl)cc1C1c2ccccc2CCN1C(=O)CCCc1cccc(Cl)c1 (racemic) [Example 112, (±)-(4-Chloro-2-{2-[4-(3-chloro-phenyl)-butyryl]-1,2,3,4-tetrahydro-isoquinolin-1-yl}-phenoxy)-acetic acid] |  | 0.0234 | 
COc1ccc2[nH]cc(CCC(=O)N3CCc4ccccc4C3c3cc(F)ccc3OCC(=O)O)c2c1 (racemic) [Example 64, (±)-(4-Fluoro-2-{2-[3-(5-methoxy-1H-indol-3-yl)-propionyl]-1,2,3,4-tetrahydro-isoquinolin-1-yl}-phenoxy)-acetic acid] |  | 0.0497 | 
COc1cc2c(cc1OC)C(c1cc(F)ccc1OCC(=O)O)N(C(=O)OCc1ccccc1)CC2 (racemic) [Example 36, (±)-1-(2-Carboxymethoxy-5-fluoro-phenyl)-6,7-dimethoxy-3,4-dihydro-1H-isoquinoline-2-carboxylic acid benzyl ester] |  | 0.0571 | 
O=C(O)COc1ccc(Cl)cc1[C@@H]1c2ccccc2CCN1C(=O)[C@H]1C[C@@H]1c1ccccc1C(F)(F)F [Example 563, (4-Chloro-2-{(S)-2-[(1S,2S)-2-(2-trifluoromethyl-phenyl)-cyclopropanecarbonyl]-1,2,3,4-tetrahydro-isoquinolin-1-yl}-phenoxy)-acetic acid] |  |  | IC50 (radioligand displacement (3H-PGD2), hCRTH2 receptor membranes): 0.264 µM
O=C(O)COc1ccc(F)cc1C1c2ccccc2CCN1C(=O)NCc1ccccc1Cl (racemic) [Example 203] |  | 0.0279 | 
O=C(O)COc1ccc(Cl)cc1[C@@H]1c2ccc(F)cc2CCN1C(=O)OCc1cnccn1 [Example 332, (S)-1-(2-Carboxymethoxy-5-chloro-phenyl)-6-fluoro-3,4-dihydro-1H-isoquinoline-2-carboxylic acid pyrazin-2-ylmethyl ester] | 0.00765 |  | 
O=C(O)COc1ccc(Cl)cc1C1c2ccccc2CCN1C(=O)CCN1CCc2ccccc21 (racemic) [Example 441] | 0.0127 |  | 
O=C(O)COc1ccc(Cl)cc1C1c2cc(F)cc(F)c2CCN1C(=O)OCc1ccccc1 (racemic) [Example 43, (±)-1-(2-Carboxymethoxy-5-chloro-phenyl)-5,7-difluoro-3,4-dihydro-1H-isoquinoline-2-carboxylic acid benzyl ester] |  | 0.00494 | 
C[C@@H](Oc1ccc(C#N)cc1C1c2ccccc2CCN1C(=O)OCc1ccccc1)C(=O)O (stereo partly drawn) [Example 13, 1-[2-((R)-1-Carboxy-ethoxy)-5-cyano-phenyl]-3,4-dihydro-1H-isoquinoline-2-carboxylic acid benzyl ester] |  | 0.011 | 
O=C(O)COc1ccc(Cl)cc1[C@@H]1c2ccccc2CCN1C(=O)OCc1cncnc1 [Example 284, (S)-1-(2-Carboxymethoxy-5-chloro-phenyl)-3,4-dihydro-1H-isoquinoline-2-carboxylic acid pyrimidin-5-ylmethyl ester] | 0.00086 |  | 

Structure (SMILES) | IC50 [1] [µM] | IC50 [2] [µM] | further results
O=C(O)COc1ccc(F)cc1C1c2ccccc2CCN1C(=O)Cc1ccc2c(c1)OCCO2 (racemic) [Example 50] |  | 0.182 | 
O=C(O)COc1ccc(F)cc1C1c2ccccc2CCN1C(=O)CCCCc1ccccc1 (racemic) [Example 143, (±)-{4-Fluoro-2-[2-(5-phenyl-pentanoyl)-1,2,3,4-tetrahydro-isoquinolin-1-yl]-phenoxy}-acetic acid] |  | 0.395 | 
O=C(O)COc1ccc(Cl)cc1C1c2ccccc2CCN1C(=O)OCc1cc(F)ccc1F (racemic) [Example 258] |  | 0.00754 | 
O=C(O)COc1ccc(Cl)cc1C1c2ccccc2CCN1C(=O)CSc1cnnn1-c1ccccc1 (racemic) [Example 162] |  | 0.115 | 
Cn1nccc1COC(=O)N1CCc2ccccc2[C@H]1c1cc(Cl)ccc1OCC(=O)O [Example 287, (S)-1-(2-Carboxymethoxy-5-chloro-phenyl)-3,4-dihydro-1H-isoquinoline-2-carboxylic acid 2-methyl-2H-pyrazol-3-ylmethyl ester] | 0.0002 |  | 
O=C(O)COc1ccc(Cl)cc1C1c2ccccc2CN1C(=O)COc1cccc2cccnc12 (racemic) [Example 509] | 0.0378 |  | 
O=C(O)COc1ccc(Cl)cc1C1c2ccccc2CCN1C(=O)OCC1CCCCC1 (racemic) [Example 262] |  | 0.00943 | 
O=C(O)COc1ccc(Cl)cc1C1c2cc(F)ccc2CCN1C(=O)OCc1ccccc1 (racemic) [Example 365] | 0.0378 |  | 
O=C(O)COc1ccc(Cl)cc1C1c2ccccc2CN1C(=O)CCn1ncc2cc(Cl)ccc21 (centres unmarked) [Example 544] | 0.34 |  | 
O=C(O)COc1ccc(Cl)cc1[C@@H]1c2ccccc2CCN1C(=O)OCCc1ccccc1 [Example 285, (S)-1-(2-Carboxymethoxy-5-chloro-phenyl)-3,4-dihydro-1H-isoquinoline-2-carboxylic acid phenethyl ester] | 0.00317 |  | 
O=C(O)COc1ccc(Cl)cc1[C@@H]1c2ccc(F)cc2CCN1C(=O)OCn1ncc2ccccc21 [Example 347, (S)-1-(2-Carboxymethoxy-5-chloro-phenyl)-6-fluoro-3,4-dihydro-1H-isoquinoline-2-carboxylic acid indazol-1-ylmethyl ester] | 0.00087 |  | 
O=C(O)COc1ccc(F)cc1C1c2ccccc2CCN1C(=O)CCCc1ccccc1 (racemic) [Example 127, (±)-{4-Fluoro-2-[2-(4-phenyl-butyryl)-1,2,3,4-tetrahydro-isoquinolin-1-yl]-phenoxy}-acetic acid] |  | 0.029 | 
O=C(O)COc1ccc(Cl)cc1C1c2ccccc2CCN1C(=O)CCn1ccc2c(F)cccc21 (racemic) [Example 387] | 0.0367 |  | 
O=C(O)COc1ccc(Cl)cc1C1c2ccccc2CCN1C(=O)OCc1cc(Cl)ccc1F (racemic) [Example 259] |  | 0.00529 | 
Cc1nn(CCC(=O)N2CCc3cc(F)ccc3[C@H]2c2cc(Cl)ccc2OCC(=O)O)c2ccccc12 [Example 397, (4-Chloro-2-{(S)-6-fluoro-2-[3-(3-methyl-indazol-1-yl)-propionyl]-1,2,3,4-tetrahydro-isoquinolin-1-yl}-phenoxy)-acetic acid] | 0.0321 |  | 
CC(C)COC(=O)N1CCc2ccccc2C1c1cc(Cl)ccc1OCC(=O)O (racemic) [Example 265] |  | 0.0376 | 
O=C(O)COc1ccc(Cl)cc1C1c2ccccc2CCN1C(=O)[C@@H]1C[C@H]1c1ccc(F)cc1 (mixture of isomers) [Example 418] | 0.0163 |  | 
Cc1cccc2c1CCN(C(=O)OCc1ccccc1)C2c1cc(F)ccc1OCC(=O)O (racemic) [Example 39, (±)-1-(2-Carboxymethoxy-5-fluoro-phenyl)-5-methyl-3,4-dihydro-1H-isoquinoline-2-carboxylic acid benzyl ester] |  | 0.0222 | 
O=C(O)COc1ccc(Cl)cc1[C@@H]1c2ccc(F)cc2CCN1C(=O)CCn1ncc2cccc(Cl)c21 [Example 400] | 0.678 |  | 
Cc1cn(CCC(=O)N2Cc3ccccc3C2c2cc(Cl)ccc2OCC(=O)O)c2ccccc12 (racemic) [Example 519] | 0.0374 |  | 
